Data: patent US20120052130A1, “GPR 119 MODULATORS” (Pfizer Inc., priority 2009, published 2012)
pKi: −log10 of the molar value.

Target: T1, human GPR119 (Homo sapiens, UniProt Q8TDV5)
T1 sequence (Q8TDV5 1-335): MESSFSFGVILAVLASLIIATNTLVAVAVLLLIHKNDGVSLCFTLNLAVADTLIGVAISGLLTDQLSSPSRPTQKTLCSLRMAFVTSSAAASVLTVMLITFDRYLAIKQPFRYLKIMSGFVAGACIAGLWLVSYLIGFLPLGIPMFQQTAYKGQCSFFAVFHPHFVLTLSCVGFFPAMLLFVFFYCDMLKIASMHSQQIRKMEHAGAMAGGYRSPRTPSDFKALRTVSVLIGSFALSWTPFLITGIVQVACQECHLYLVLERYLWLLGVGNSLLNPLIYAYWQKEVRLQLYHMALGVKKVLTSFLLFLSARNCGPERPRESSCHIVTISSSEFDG
Assay: GPR 119 radioligand binding assay ([3H]-Compound A or [3H]-Compound B, membranes of HEK 293FT cells over-expressing hGPR119)
Conditions: calculated from IC50 by Cheng-Prusoff; each line is a separate determination
Protocol: HEK 293FT cells (Invitrogen, Carlsbad, Calif.) were grown in a shake flask in 293Freestyle medium (Invitrogen) supplemented with 50 microg/mL neomycin and 10 mM HEPES (37 C, 8% carbon dioxide, shaking). The cells were centrifuged gently (approximately 500×g, 10 minutes) and the pellet resuspended in a mixture of Dulbecco's PBS(minus Mg++/−Ca++) supplemented with 18% fetal bovine serum (Sigma Aldrich) and P1 virus such that the multiplicity of infection (MOI) was 10 and the final cell density was 1.3×10^6/mL (total volume 2.5 liters). The cells were transferred to a 5 liter Wave Bioreactor Wavebag (Wave Technologies, MA) and incubated for 4 hours at 27 degrees Celsius (17 rocks/min, 7 degrees platform angle); at the end of the incubation period, an equal volume(2.5 liters) of 293Freestyle medium supplemented with 30 mM sodium butyrate (Sigma Aldrich) was added (final concentration=15 mM), and the cells were grown for 20 hours (37 degrees Celsius, 8% CO2 [0.2 liters/min}, 25 rocks/minute, 7 degrees platform angle). […]
The frozen cells were thawed on ice and centrifuged at 700×g (1400 rpm) for 10 minutes at 4 degrees Celsius. […] The protein concentration was determined using the Pierce BCA protein assay kit (Pierce reagents A #23223 and B #23224). […]

pKi	SMILES
7.34	Cc1c(O[C@@H]2[C@@H]3COC[C@H]2CN(C(=O)OC2(C)CC2)C3)ncnc1N1CCc2ncccc21 [Example 28, 1-Methylcyclopropyl (9-syn)-9-{[6-(2,3-dihydro-1H-pyrrolo[3,2-b]pyridin-1-yl)-5-methylpyrimidin-4-yl]oxy}-3-oxa-7-azabicyclo[3.3.1]nonane-7-carboxylate]
6.89	Cc1c(O[C@@H]2[C@@H]3COC[C@H]2CN(C(=O)OC(C)C)C3)ncnc1N1CCc2cc(S(C)(=O)=O)ccc21 [Example 23, Isopropyl (9-syn)-9-({5-methyl-6-[5-(methylsulfonyl)-2,3-dihydro-1H-indol-1-yl]pyrimidin-4-yl}oxy)-3-oxa-7-azabicyclo[3.3.1]nonane-7-carboxylate]
